PMC10053623, “Water-Soluble Fullerene C60 Derivatives Are Effective Inhibitors of Influenza Virus Replication” (Microorganisms, 2023)

Assays:
in vitro = details: dog
[1] = tested on: Influenza A/Puerto Rico/8/34 (H1N1) virus; experiment: microbe, parasite or virus in culture; assay type: cell-based

## CCC(CC)O[C@@H]1C=C(C(=O)O)C[C@H](N)[C@H]1NC(C)=O [Oseltamivir carboxylate]
In vitro
  CC50 at 72 h: > 200000 nM
[1]
  SI, selectivity index, the ratio of CC50 to IC50: >667
[1]; Influenza A virus, H1N1, MDCK, 72 h, read-out: IC50, inhibitory concentration causing a 50% decrease in virus-induced cell death
  IC50: 300 ± 20 nM
